Here are results for five compounds from patent US8563558B2, “Substituted pyridine urea compounds” (Confluence Life Sciences, Inc., priority 2010, dated 2013).

The target of assay [1] is p38α/MK2 (Homo sapiens, UniProt Q16539). As to the kind of experiment: p38α/MK2 cascade assay (phosphorylation of Hsp27 peptide, Caliper LabChip 3000). Type of assay: biochemical. The settings on record: Hsp27 peptide 1 μM, MgATP 10 μM, 30 minutes, room temperature, two values given, read-out: p38/MK2 IC50. The protocol:
(§1) P38 inhibitory potency and P38/MK2 substrate selectivity: The novel, MK2 substrate-selective inhibitory mechanism of compounds is evaluated in enzyme assays comparing inhibitor potency in blocking p38/MK2 versus p38/PRAK induced phosphorylation of an HSP-27 derived peptide substrate. The ability of compounds to inhibit activated phospho-p38α is evaluated using a p38α/MK2 and a p38α/PRAK cascade assay format. The kinase activity of p38α is determined by its ability to phosphorylate GST-MK2 or GST-PRAK. Activation of MK2 or PRAK by p38α is quantitated by measuring the phosphorylation of a fluorescently-labeled, MK2 specific peptide substrate, Hsp27 peptide (FITC-KKKALSRQLSVAA). The phosphorylation of the Hsp27 peptide is quantified using the Caliper LabChip 3000. Kinase reactions are carried out in a 384-well plate (Matrical, MP101-1-PP) in 20 mM HEPES pH 7.5, 10 mM MgCl2, 0.0005% Tween-20, 0.01% BSA, 1 mM DTT, and 2% DMSO. The inhibitor concentration is varied between 0.02-30,000 nM, while the Hsp27 peptide substrate and MgATP are held constant at 1 μM and 10 μM, respectively. Activated p38α is added to a final concentration of […] for reactions with nonphosphorylated 1 nM His6-MK2 in the cascade reaction. For the p38α/PRAK cascade, unactivated GST-PRAK is held constant at 1 nM while p38α is added in to a final concentration of […]. Kinase reactions are incubated at room temperature and quenched after 30 minutes by the addition of stop buffer (180 mM HEPES, 30 mM EDTA, and 0.2% Coating Reagent-3). Under these conditions, approximately 20% of the substrate Hsp27 peptide is phosphorylated. Reactions are initiated by the addition of activated p38α except for preincubation experiments, where reactions are initiated by the addition of Hsp27 peptide and MgATP. Preincubation of p38α with inhibitor or p38α with unactivated His6-MK2 or unactivated GST-PRAK and inhibitor are performed at 2× final assay concentrations at room temperature 240 minutes prior to adding ATP and Hsp27 peptide to initiate catalysis. The p38α compound inhibitory potency is quantitated from dose-response IC50 values or Ki values from p38α/MK2 cascade assays while the substrate selectivity is calculated as a ratio of p38α/PRAK:p38α/MK2 IC50 values. Species compounds of Formula I, described hereinabove, evaluated in this assay, are expected to provide a therapeutic benefit in the treatment of p38 kinase mediated diseases, such as autoimmune diseases and lymphoma.

Assay [2] concerns the target p38α/PRAK (Homo sapiens, UniProt Q16539). The assay is described as follows: p38α/PRAK cascade assay (phosphorylation of Hsp27 peptide, Caliper LabChip 3000). Type of assay: biochemical. The settings on record: Hsp27 peptide 1 μM, MgATP 10 μM, 30 minutes, room temperature, two values given, read-out: p38/PRAK IC50. The protocol:
as §1

Several values for one entry are separate records, joined by “and”; a condition that tells them apart may be missing. Equal values may be shown once.

Chain of p38α/MK2 (Q16539 whole entry): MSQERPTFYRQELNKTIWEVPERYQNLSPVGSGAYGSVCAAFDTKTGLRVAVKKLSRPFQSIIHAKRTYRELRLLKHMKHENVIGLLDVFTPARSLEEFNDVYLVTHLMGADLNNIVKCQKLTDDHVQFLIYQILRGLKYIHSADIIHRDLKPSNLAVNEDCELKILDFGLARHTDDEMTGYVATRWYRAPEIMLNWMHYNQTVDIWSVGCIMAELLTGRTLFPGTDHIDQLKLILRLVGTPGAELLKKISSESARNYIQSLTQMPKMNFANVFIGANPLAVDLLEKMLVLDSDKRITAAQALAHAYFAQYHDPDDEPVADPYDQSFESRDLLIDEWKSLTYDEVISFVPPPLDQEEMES
Chain of p38α/MK2 (P49137 whole entry partner): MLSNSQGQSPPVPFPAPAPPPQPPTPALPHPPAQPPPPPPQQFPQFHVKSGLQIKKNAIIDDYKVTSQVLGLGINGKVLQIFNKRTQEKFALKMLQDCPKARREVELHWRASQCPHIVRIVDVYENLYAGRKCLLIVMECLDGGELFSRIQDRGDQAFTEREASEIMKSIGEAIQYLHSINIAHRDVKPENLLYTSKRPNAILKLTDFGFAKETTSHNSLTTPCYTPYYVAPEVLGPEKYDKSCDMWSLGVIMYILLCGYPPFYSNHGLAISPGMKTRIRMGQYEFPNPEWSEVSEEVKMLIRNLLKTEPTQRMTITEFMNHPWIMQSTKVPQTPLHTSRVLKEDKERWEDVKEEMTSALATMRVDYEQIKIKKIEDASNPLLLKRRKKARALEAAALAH
Chain of p38α/PRAK (Q16539 whole entry): as the sequence (Q16539 whole entry) above

On to `COC(=O)c1ccc(N(C(N)=O)c2cc(-c3ccnc(C(C)(C)C)n3)ccc2C)nc1-c1ccc(F)cc1F` [Example 32, methyl 6-(1-(5-(2-(tert-butyl)pyrimidin-4-yl)-2-methylphenyl)ureido)-2-(2,4-difluorophenyl)nicotinate], for which the IC50 is 0.838 µM and 0.955 µM in assay [1]; over 10 µM in assay [2].

Take `Cc1ccc(-c2ccnc(C(C)(C)C)n2)cc1N(C(N)=O)c1ccc(C(N)=O)c(-c2ccc(F)cc2F)n1` [Example 17, 6-(1-(5-(2-(tert-butyl)pyrimidin-4-yl)-2-methylphenyl)ureido)-2-(2,4-difluorophenyl)nicotinamide]: the IC50 is 0.55 µM and 0.5 µM in assay [1]; over 10 µM in assay [2].

Turning to `Cc1nc(-c2cccc(N(C(N)=O)c3cc(-c4ccnc(C(C)(C)C)n4)ccc3C)n2)cs1` [Example 33, 1-(5-(2-(tert-butyl)pyrimidin-4-yl)-2-methylphenyl)-1-(6-(2-methylthiazol-4-yl)pyridin-2-yl)urea], the IC50 in assay [1] is 9.5 µM and 12 µM; in assay [2] it was over 50 µM.

Regarding `Cc1ccc(-c2ccnc(C(C)(C)O)n2)cc1N(C(N)=O)c1cccc(-c2ccc(F)cc2F)n1` [Example 5, 1-(6-(2,4-difluorophenyl)pyridin-2-yl)-1-(5-(2-(2-hydroxypropan-2-yl)pyrimidin-4-yl)-2-methylphenyl)urea], the IC50 is 0.34 µM and 0.36 µM in assay [1]; 1.9 µM and 2.6 µM in assay [2].

Consider `Cc1ccc(-c2ccnc(C(C)(C)C)n2)cc1N(C(N)=O)c1cccc(-c2ccc(F)cc2F)n1` [Example 31, 1-(5-(2-(tert-butyl)pyrimidin-4-yl)-2-methylphenyl)-1-(6-(2,4-difluorophenyl)pyridin-2-yl)urea], for which the IC50 in assay [1] was 1.27 µM and 1.53 µM; in assay [2] it was over 50 µM.
